The values that follow come from patent US12624023B2, “Sulfonylurea derivatives and uses thereof” (NodThera Limited, priority 2019, dated 2026).

For assay [1], the system named is IL-1β release upon NLRP3 activation in human whole blood. The assay can be described thus: Whole blood (WB) assay (IL-1β release, LPS priming + ATP stimulation, HTRF). In kind it is cell-based. The note with it: heparin, diluted 9:5 with media, LPS 1 μg/ml 3 h, compound 30 min, ATP 5 mM 1 h, IL-1β by HTRF. Here is the method:
The compounds of the present disclosure were tested for their inhibitory activity against IL-1β release upon NLRP3 activation in human whole blood.
Whole blood was drawn from single healthy donors and treated with sodium heparin anticoagulant. Blood was diluted with cell culture media at a 9:5 ratio, seeded in a 96-well plate and incubated for 3 h with lipopolysaccharide (LPS, 1 μg/ml final concentration diluted 1000× from a 1 mg/ml stock solution). The compounds of the present disclosure were added (a single compound concentration per well) and the blood was incubated for 30 min. Next, the blood was stimulated with ATP (5 mM final concentration diluted 20× from a 100 mM stock solution) for 1 h and the cell culture media from the wells were collected for further analysis.
The release of IL-1β into the media was determined by quantitative detection of IL-1β in the media using HTRF®, CisBio cat. No. 62HIL1BPEH. Briefly, cell culture supernatant were diluted as appropriate to bring IL-1β levels within the HTRF® detection range ([…]) and subsequently dispensed into the assay plate containing antibodies labelled with the HTRF® donor and acceptor. A microplate spectrophotometer (BMG) was used to detect signals at 655 nm and 620 nm.

The subject of assay [2] is IL-1β release upon NLRP3 activation in peripheral blood mononuclear cells (PBMC). The assay is described as follows: PBMC IC50 determination assay (IL-1β release, LPS priming + ATP stimulation, HTRF). Type of assay: cell-based. The note with it: PBMC from buffy coats; LPS 1 μg/ml 3 h, compound 30 min, ATP 5 mM 1 h; IL-1β by HTRF. As for the experimental part:
The compounds of the present disclosure were tested for their inhibitory activity against IL-1β release upon NLRP3 activation in peripheral blood mononuclear cells (PBMC).
PBMC were isolated from buffy coats by density gradient centrifugation on Histopaque-1077 (Sigma, cat no. 10771). Isolated cells were seeded into the wells (280,000 cells/well) of a 96-well plate and incubated for 3 h with lipopolysaccharide (LPS, 1 μg/ml diluted 1000× from a 1 mg/ml stock solution). The compounds of the present disclosure were added (a single compound per well) and the cells were incubated for 30 min. Next, the cells were stimulated with ATP (5 mM final concentration diluted 20× from a 100 mM stock solution) for 1 h and the cell culture media from the wells were collected for further analysis.
The release of IL-1β into the media was determined by quantitative detection of IL-1β in the media using HTRF®, CisBio cat. No. 62HIL1BPEH. Briefly, cell culture supernatant were dispensed directly into the assay plate containing antibodies labelled with the HTRF® donor and acceptor. A microplate spectrophotometer (BMG) was used to detect signals at 655 nm and 620 nm. The detection range of IL-1β HTRF® was […].
On the technique in general: TR-FRET usually uses a lanthanide donor and a delayed reading to cut background.

As for `CCc1cc(NC(=O)NS(=O)(=O)N(C2CCOC2)C2CCCN(C)C2)c(CC)s1` (stereo not shown) [Compound 69, 3-(2,5-Diethylthiophen-3-yl)-1-[(1-methylpiperidin-3-yl)(oxolan-3-yl)-sulfamoyl]urea], the half-inhibitory concentration (IC50) (commonly the midpoint of a concentration-inhibition curve) in assay [1] is over 20000 nM; in assay [2], over 10000 nM.

In the case of `CC(C)c1sc2c(c1NC(=O)NS(=O)(=O)N(c1cnn(C)c1)[C@@H]1CCCN(C)C1)CCC2` [Compound 70, 1-[(1-Methyl-1H-pyrazol-4-yl)[(3R)-1-methylpiperidin-3-yl]sulfamoyl]-3-[2-(propan-2-yl)-4H,5H,6H-cyclopenta[b]thiophen-3-yl]urea], the IC50 in assay [1] was under 1000 nM; in assay [2] it was 100 to 500 nM.

Regarding `CCc1cc(NC(=O)NS(=O)(=O)N(c2cnn(C(C)C)c2)[C@@H]2CCCN(C)C2)c(CC)o1` [Compound 71, 3-(2,5-Diethylfuran-3-yl)-1-{[(3R)-1-methylpiperidin-3-yl][1-(propan-2-yl)-1H-pyrazol-4-yl]sulfamoyl}urea], the IC50 lay in the range of 1000 to 3000 nM in assay [1] and 100 to 500 nM in assay [2].

Regarding `CC(C)c1cc(NC(=O)NS(=O)(=O)N(c2cnn(C)c2)C2CCCN(C)C2)c(C(C)C)o1` (stereo not shown) [Compound 73, 3-[2,5-Bis(propan-2-yl)furan-3-yl]-1-[(1-methyl-1H-pyrazol-4-yl)(1-methylpiperidin-3-yl)sulfamoyl]urea], the IC50 in assay [1] was under 1000 nM; in assay [2], under 100 nM.

Turning to `CC(C)c1cc(NC(=O)NS(=O)(=O)N(CCN(C)C)c2cnn(C)c2)c(C(C)C)o1` [Compound 75, 3-[2,5-Bis(propan-2-yl)furan-3-yl]-1-{[2-(dimethylamino)ethyl](1-methyl-1H-pyrazol-4-yl)sulfamoyl}urea], the half-inhibitory concentration (IC50) in assay [1] was 3000 to 10000 nM; in assay [2], 100 to 500 nM.

Regarding `CC(C)c1cc(NC(=O)NS(=O)(=O)N(c2cnn(C)c2)[C@@H]2C[C@H](F)CN(C)C2)c(C(C)C)s1` [Compound 76, 3-[2,5-Bis(propan-2-yl)thiophen-3-yl]-1-{[(3R,5S)-5-fluoro-1-methylpiperidin-3-yl](1-methyl-1H-pyrazol-4-yl)sulfamoyl}urea], the IC50 was in the range of 3000 to 10000 nM in assay [1] and 100 to 500 nM in assay [2].

For the molecule `CCc1sc2c(c1NC(=O)NS(=O)(=O)N(c1cnn(C)c1)C1CCCN(C)C1)CCC2` (stereo not shown) [Compound 77, 3-{2-Ethyl-4H,5H,6H-cyclopenta[b]thiophen-3-yl}-1-[(1-methyl-1H-pyrazol-4-yl)(1-methylpiperidin-3-yl)sulfamoyl]urea], the IC50 was under 1000 nM in assay [1] and under 100 nM in assay [2].

For `CCc1oc(C(C)C)cc1NC(=O)NS(=O)(=O)N(c1cnn(C)c1)C1CCCN(C)C1` (stereo not shown) [Compound 78, 3-[2-Ethyl-5-(propan-2-yl)furan-3-yl]-1-[(1-methyl-1H-pyrazol-4-yl)(1-methyl-piperidin-3-yl)sulfamoyl]urea], the IC50 in assay [1] was in the range of 1000 to 3000 nM; in assay [2], 500 to 1000 nM.

As to `CCc1cc(NC(=O)NS(=O)(=O)N(c2cnn(C)c2)C2CCCN(C)C2)c(C(C)C)o1` (stereo not shown) [Compound 79, 3-[5-Ethyl-2-(propan-2-yl)furan-3-yl]-1-[(1-methyl-1H-pyrazol-4-yl)(1-methyl-piperidin-3-yl)sulfamoyl]urea], the figures for the IC50 in assay [1] and in assay [2] were under 1000 nM and under 100 nM, respectively.

For `CC(C)c1sc(Cl)cc1NC(=O)NS(=O)(=O)N(c1cnn(C)c1)[C@H]1CCCN(C)C1` [Compound 80, 3-[5-Chloro-2-(propan-2-yl)thiophen-3-yl]-1-[(1-methyl-1H-pyrazol-4-yl)[(3S)-1-methylpiperidin-3-yl]sulfamoyl]urea], the IC50 in assay [1] is under 1000 nM; in assay [2] it was under 100 nM.

`Cc1cc(NC(=O)NS(=O)(=O)N(c2cnn(C)c2)[C@H]2CCCN(C)C2)c(C(C)C)s1` [Compound 81, 1-[(1-Methyl-1H-pyrazol-4-yl)[(3S)-1-methylpiperidin-3-yl]sulfamoyl]-3-[5-methyl-2-(propan-2-yl)thiophen-3-yl]urea]: the concentration for half-maximal inhibition (IC50) in assay [1] is under 1000 nM; in assay [2], under 100 nM.

For `CC(C)c1cc(NC(=O)NS(=O)(=O)N(c2cnn(C)c2)[C@@H]2C[C@@H](F)CN(C)C2)c(C(C)C)s1` [Compound 82, 3-[2,5-Bis(propan-2-yl)thiophen-3-yl]-1-{[(3R,5R)-5-fluoro-1-methylpiperidin-3-yl](1-methyl-1H-pyrazol-4-yl)sulfamoyl}urea], the IC50 in assay [1] is 1000 to 3000 nM; in assay [2], under 100 nM.

Take `CC(C)c1cc(NC(=O)NS(=O)(=O)N(CCN(C)C)c2cnn(C(C)C)c2)c(C(C)C)o1` [Compound 83, 1-[2,5-Bis(propan-2-yl)furan-3-yl]-3-{[2-(dimethylamino)ethyl][1-(propan-2-yl)-1H-pyrazol-4-yl]sulfamoyl}urea]: the half-maximal inhibitory concentration (IC50) was in the range of 1000 to 3000 nM in assay [1] and 100 to 500 nM in assay [2].

Regarding `CC(C)c1cc(NC(=O)NS(=O)(=O)N(c2cnn(C(C)C)c2)[C@H]2CCCN(C)C2)c(C(C)C)s1` [Compound 84, 3-[2,5-Bis(propan-2-yl)thiophen-3-yl]-1-{[(3S)-1-methylpiperidin-3-yl][1-(propan-2-yl)-1H-pyrazol-4-yl]sulfamoyl}urea], the figures for the half-inhibitory concentration (IC50) in assay [1] and in assay [2] were under 1000 nM and under 100 nM, respectively.

Take `CC(C)c1sc2c(c1NC(=O)NS(=O)(=O)N(c1cnn(C)c1)[C@H]1CCCN(C)C1)CCC2` [Compound 85, 1-[(1-Methyl-1H-pyrazol-4-yl)[(3S)-1-methylpiperidin-3-yl]sulfamoyl]-3-[2-(propan-2-yl)-4H,5H,6H-cyclopenta[b]thiophen-3-yl]urea]: the IC50 in assay [1] is under 1000 nM; in assay [2], under 100 nM.

Take `CCc1sc2c(c1NC(=O)NS(=O)(=O)N(c1cnn(C)c1)C1CCCN(C)C1)CCCC2` (stereo not shown) [Compound 86, 3-(2-Ethyl-4,5,6,7-tetrahydro-1-benzothiophen-3-yl)-1-[(1-methyl-1H-pyrazol-4-yl)(1-methylpiperidin-3-yl)sulfamoyl]urea]: the IC50 fell in the range of 1000 to 3000 nM in assay [1] and 100 to 500 nM in assay [2].

With `CCc1cc(NC(=O)NS(=O)(=O)N(c2cnn(C(C)C)c2)[C@H]2CCCN(C)C2)c(CC)o1` [Compound 87, 3-(2,5-Diethylfuran-3-yl)-1-{[(3S)-1-methylpiperidin-3-yl][1-(propan-2-yl)-1H-pyrazol-4-yl]sulfamoyl}urea], the half-maximal inhibitory concentration (IC50) lay within 1000 to 3000 nM in assay [1] and 100 to 500 nM in assay [2].

Turning to `CCc1cc(NC(=O)NS(=O)(=O)N(c2cnn(C)c2)[C@H]2CCCN(C)C2)c(C(C)C)s1` [Compound 88, 3-[5-Ethyl-2-(propan-2-yl)thiophen-3-yl]-1-[(1-methyl-1H-pyrazol-4-yl)[(3S)-1-methylpiperidin-3-yl]sulfamoyl]urea], the figures for the concentration for half-maximal inhibition (IC50) in assay [1] and in assay [2] were under 1000 nM and under 100 nM, respectively.

As for `CCc1sc(C(C)C)cc1NC(=O)NS(=O)(=O)N(c1cnn(C)c1)[C@H]1CCCN(C)C1` [Compound 89, 3-[2-Ethyl-5-(propan-2-yl)thiophen-3-yl]-1-[(1-methyl-1H-pyrazol-4-yl)[(3S)-1-methylpiperidin-3-yl]sulfamoyl]urea], the IC50 in assay [1] was 1000 to 3000 nM; in assay [2], under 100 nM.

For the molecule `Cc1sc(C(C)C)cc1NC(=O)NS(=O)(=O)N(c1cnn(C)c1)[C@H]1CCCN(C)C1` [Compound 90, 1-[(1-Methyl-1H-pyrazol-4-yl)[(3S)-1-methylpiperidin-3-yl]sulfamoyl]-3-[2-methyl-5-(propan-2-yl)thiophen-3-yl]urea], the figures for the IC50 in assay [1] and in assay [2] were 1000 to 3000 nM and 100 to 500 nM, respectively.

With `CC(C)c1cc(NC(=O)NS(=O)(=O)N(c2cnn(C3CC3)c2)[C@H]2CCCN(C)C2)c(C(C)C)s1` [Compound 91, 3-[2,5-Bis(propan-2-yl)thiophen-3-yl]-1-[(1-cyclopropyl-1H-pyrazol-4-yl)[(3S)-1-methylpiperidin-3-yl]sulfamoyl]urea], the figures for the IC50 in assay [1] and in assay [2] were under 1000 nM and under 100 nM, respectively.

Turning to `CC(C)c1cc(NC(=O)NS(=O)(=O)N(c2cnn(C)c2)[C@H]2C[C@H](F)CN(C)C2)c(C(C)C)s1` [Compound 92, 3-[2,5-Bis(propan-2-yl)thiophen-3-yl]-1-{[(3S,5S)-5-fluoro-1-methylpiperidin-3-yl](1-methyl-1H-pyrazol-4-yl)sulfamoyl}urea], the half-inhibitory concentration (IC50) in assay [1] is under 1000 nM; in assay [2], under 100 nM.

Regarding `CC(C)c1cc(NC(=O)NS(=O)(=O)N(c2cnn(C)c2)C2CN(C)CC(F)(F)C2)c(C(C)C)s1` (stereo not shown) [Compound 93, 3-[2,5-Bis(propan-2-yl)thiophen-3-yl]-1-[(5,5-difluoro-1-methylpiperidin-3-yl)(1-methyl-1H-pyrazol-4-yl)sulfamoyl]urea], the IC50 in assay [1] is 3000 to 10000 nM; in assay [2], 100 to 500 nM.
